Laboratory results as given in US20190315814A1, “LANTIBIOTIC VARIANTS AND USES THEREOF” (priority 2016, published 2019).
In brackets after ≈: the same amount, converted by molar mass. Where two headings read alike, the source gives them in different places. Where a SMILES comes first, the peptide text is derived from it.

Key:
[1] = test system: Peptostreptococcus anaerobius (ATCC 27337)
[2] = simulated gi fluid
[3] = test system: Eggerthella lenta (ATCC 27337)
[4] = test system: Lactobacillus acidophilus (CCUG 4356)
[5] = test system: VRE Enterococcus faecalis; settings: VRE
[6] = test system: Clostridium difficile UNT103-1; assay: Non-cannulated Syrian hamster C. difficile infection model, oral gavage; assay type: in vivo, Golden Syrian hamsters; settings: for Percent Survival at Day-22: oral gavage TID Days 2-6, vancomycin 20 mg/kg once a day; for Toxin A level at Day-22 / Mean LOG10 CFU/mL of feces homogenates (cecal spore counts) at Day-22 / Toxin B level at Day-22: oral gavage; for Toxin A level at Day-22: first value of A/B cell; for Toxin A level at Day-22 / Toxin B level at Day-22: limit of detection 0.8; for Mean LOG10 CFU/mL of feces homogenates (cecal spore counts) at Day-22: limit of detection 2.40; for Toxin B level at Day-22: second value of A/B cell
Protocol: Following the recovery phase, male Golden Syrian hamsters were inoculated with Clostridium difficile UNT103-1 (VA11, non epidemic (cdtB-, REA group J) Curtis Donskey, Cleveland VA Hospital, Cleveland, Ohio). On Day 1, at 24 hrs after infection, all animals received a single subcutaneous injection of clindamycin (10 mg/kg). Test article formulations were administered three times per day (TID), starting on Day 2 at 18 hours after Clindamycin injection, for 5 consecutive days (Days 2 through 6), and followed until Day 22 to assess recurrence. Vancomycin (positive control) was administered once a day at 20 mg/kg on Days 2 through 6. Cecal spore counts and Toxins A and B were determined as described above

[7] = test system: Clostridium scindens (ATCC 35704)
in vitro = settings: for half-life: simulated gi fluid
Protocol: Assay incubation conditions included […] simulated gastric fluid (SGF, USP 39 Test Solution; 2 g/L NaCl, 7 mL/L glacial HCl, pH 1.4) containing 1.75 mg/mL Pepsin (3200-4500 U/mg) mixed with 7.5 μL of 10 mg/mL variant (or positive control, NH2-Met-Arg-Phe-Ala-OH, MRFA, CAS#67368-29-0) for a final concentration of 300 μg/ml variant in a microfuge tube. Samples were incubated at 37° C. and analyzed using HPLC or LC-MS for loss of substrate. The percent remaining, elimination rate constant (Ke), and in vitro protein half-lives were calculated. A control of SGF without enzyme was also run and analyzed in the same manner for each variant.

[8] = FaSSIF + 1% pancreatin + 3 μg/ml trypsin + 3 μg/ml chymotrypsin half-life

| SMILES | MIC to H. Pylori without EDTA (Heliobacter pylori) | MIC to H. Pylori with 0.05M EDTA (Heliobacter pylori) | MIC P. anaerobius [1] | half-life [2, 8] | half-life ([2]; FaSSIF only half-life) | MIC E. lenta [3] | MIC VRE ATCC 700221 (VRE Enterococcus faecium) | MIC L. acidophilus [4] | MIC VRE ATCC 51575 [5] | MIC VRE CCUG 47775 [5] | Percent Survival at Day-22 [6] | Toxin A level at Day-22 [6] | Mean LOG10 CFU/mL of feces homogenates (cecal spore counts) at Day-22 [6] | Toxin B level at Day-22 [6] | MIC C. scindens [7] | half-life (in vitro) | half-life at 300 μg/ml (in vitro; simulated gastric fluid without enzyme, pH 1.4) |
| --- | --- | --- | --- | --- | --- | --- | --- | --- | --- | --- | --- | --- | --- | --- | --- | --- | --- |
| C=C1NC(=O)[C@H](Cc2c[nH]c3ccccc23)NC(=O)[C@H](NC(=O)[C@H](CCCCN)NC(=O)[C@@H](N)[C@@H](C)CC)CSC[C@@H](C(=O)N[C@H]2C(=O)N3CCC[C@H]3C(=O)NCC(=O)N[C@H](C(=O)N[C@@H](C)C(=O)N[C@@H](C)C(=O)NC(=CC)C(=O)NCC(=O)N[C@@H]3CSC[C@@H]4NC(=O)[C@H](Cc5ccc(O)cc5)NC(=O)[C@@H](CS/C=C\NC4=O)NC(=O)[C@H](CC(N)=O)NC(=O)[C@H](Cc4ccccc4)NC3=O)CS[C@H]2C)NC(=O)[C@H](CC(C)C)NC1=O [F1I R13A] | 8 µg/mL (≈ 3.73 µM) | 8 µg/mL | 1 µg/mL (≈ 0.466 µM) | > 12 h | > 12 h | 2 µg/mL (≈ 0.932 µM) | 8 µg/mL (≈ 3.73 µM) | 0.5 µg/mL (≈ 0.233 µM) | 16 µg/mL (≈ 7.46 µM) | 16 µg/mL (≈ 7.46 µM) | 50% | 147 ng/mL | 4.67 LOG10 CFU/mL | 205.5 ng/mL | 4 µg/mL (≈ 1.86 µM) | > 24 h |  |
| C=C1NC(=O)[C@H](Cc2c[nH]c3ccccc23)NC(=O)[C@H](NC(=O)[C@H](CCCCN)NC(=O)[C@@H](N)[C@@H](C)CC)CSC[C@@H](C(=O)N[C@H]2C(=O)N3CCC[C@H]3C(=O)NCC(=O)N[C@H](C(=O)N[C@@H](C)C(=O)N[C@@H](CC(=O)O)C(=O)NC(=CC)C(=O)NCC(=O)N[C@@H]3CSC[C@@H]4NC(=O)[C@H](Cc5ccc(O)cc5)NC(=O)[C@@H](CS/C=C\NC4=O)NC(=O)[C@H](CC(N)=O)NC(=O)[C@H](Cc4ccccc4)NC3=O)CS[C@H]2C)NC(=O)[C@H](CC(C)C)NC1=O [F1I R13D] | 8 µg/mL (≈ 3.65 µM) | 8 µg/mL | 1 µg/mL (≈ 0.457 µM) | > 12 h | > 12 h | 2 µg/mL (≈ 0.913 µM) | 32 µg/mL (≈ 14.6 µM) | 2 µg/mL (≈ 0.913 µM) | 32 µg/mL (≈ 14.6 µM) | 32 µg/mL (≈ 14.6 µM) | 50% | 648.5 ng/mL | 4.8 LOG10 CFU/mL | 216.6 ng/mL | 8 µg/mL (≈ 3.65 µM) | > 24 h |  |
| C=C1NC(=O)[C@H](Cc2c[nH]c3ccccc23)NC(=O)[C@H](NC(=O)[C@H](CCCCN)NC(=O)[C@@H](N)[C@@H](C)CC)CSC[C@@H](C(=O)N[C@H]2C(=O)N3CCC[C@H]3C(=O)NCC(=O)N[C@H](C(=O)N[C@@H](C)C(=O)N[C@@H](CC(N)=O)C(=O)NC(=CC)C(=O)NCC(=O)N[C@@H]3CSC[C@@H]4NC(=O)[C@H](Cc5ccc(O)cc5)NC(=O)[C@@H](CS/C=C\NC4=O)NC(=O)[C@H](CC(N)=O)NC(=O)[C@H](Cc4ccccc4)NC3=O)CS[C@H]2C)NC(=O)[C@H](CC(C)C)NC1=O [F1I R13N] | 8 µg/mL (≈ 3.66 µM) | 8 µg/mL | 0.25 µg/mL (≈ 0.114 µM) | > 12 h | > 12 h | 0.5 µg/mL (≈ 0.228 µM) | 32 µg/mL (≈ 14.6 µM) | 0.5 µg/mL (≈ 0.228 µM) | 16 µg/mL (≈ 7.31 µM) | 16 µg/mL (≈ 7.31 µM) | 66% | 138.1 ng/mL | 3.64 LOG10 CFU/mL | 120.2 ng/mL | 2 µg/mL (≈ 0.914 µM) | > 24 h |  |
| C=C1NC(=O)[C@H](Cc2c[nH]c3ccccc23)NC(=O)[C@H](NC(=O)[C@H](CCCCN)NC(=O)[C@@H](N)CC(C)C)CSC[C@@H](C(=O)N[C@H]2C(=O)N3CCC[C@H]3C(=O)NCC(=O)N[C@H](C(=O)N[C@@H](C)C(=O)N[C@@H](C)C(=O)NC(=CC)C(=O)NCC(=O)N[C@@H]3CSC[C@@H]4NC(=O)[C@H](Cc5ccc(O)cc5)NC(=O)[C@@H](CS/C=C\NC4=O)NC(=O)[C@H](CC(N)=O)NC(=O)[C@H](Cc4ccccc4)NC3=O)CS[C@H]2C)NC(=O)[C@H](CC(C)C)NC1=O [F1L R13A] | 8 µg/mL (≈ 3.73 µM) | 8 µg/mL | 0.5 µg/mL (≈ 0.233 µM) | > 12 h | > 12 h | 0.5 µg/mL (≈ 0.233 µM) | 16 µg/mL (≈ 7.46 µM) | 0.5 µg/mL (≈ 0.233 µM) | 32 µg/mL (≈ 14.9 µM) | 16 µg/mL (≈ 7.46 µM) | 0% | 4532.5 ng/mL | 7.28 LOG10 CFU/mL | 1795.5 ng/mL | 4 µg/mL (≈ 1.86 µM) | > 24 h |  |
| C=C1NC(=O)[C@H](Cc2c[nH]c3ccccc23)NC(=O)[C@H](NC(=O)[C@H](CCCCN)NC(=O)[C@@H](N)CC(C)C)CSC[C@@H](C(=O)N[C@H]2C(=O)N3CCC[C@H]3C(=O)NCC(=O)N[C@H](C(=O)N[C@@H](C)C(=O)N[C@@H](CC(=O)O)C(=O)NC(=CC)C(=O)NCC(=O)N[C@@H]3CSC[C@@H]4NC(=O)[C@H](Cc5ccc(O)cc5)NC(=O)[C@@H](CS/C=C\NC4=O)NC(=O)[C@H](CC(N)=O)NC(=O)[C@H](Cc4ccccc4)NC3=O)CS[C@H]2C)NC(=O)[C@H](CC(C)C)NC1=O [F1L R13D] | 8 µg/mL (≈ 3.65 µM) | 4 µg/mL | 2 µg/mL (≈ 0.913 µM) | > 12 h | > 12 h | 1 µg/mL (≈ 0.457 µM) | 32 µg/mL (≈ 14.6 µM) | 8 µg/mL (≈ 3.65 µM) | 64 µg/mL (≈ 29.2 µM) | 32 µg/mL (≈ 14.6 µM) |  |  |  |  | 8 µg/mL (≈ 3.65 µM) | > 24 h |  |
| C=C1NC(=O)[C@H](Cc2c[nH]c3ccccc23)NC(=O)[C@H](NC(=O)[C@H](CCCCN)NC(=O)[C@@H](N)CC(C)C)CSC[C@@H](C(=O)N[C@H]2C(=O)N3CCC[C@H]3C(=O)NCC(=O)N[C@H](C(=O)N[C@@H](C)C(=O)N[C@@H](CC(N)=O)C(=O)NC(=CC)C(=O)NCC(=O)N[C@@H]3CSC[C@@H]4NC(=O)[C@H](Cc5ccc(O)cc5)NC(=O)[C@@H](CS/C=C\NC4=O)NC(=O)[C@H](CC(N)=O)NC(=O)[C@H](Cc4ccccc4)NC3=O)CS[C@H]2C)NC(=O)[C@H](CC(C)C)NC1=O [F1L R13N] | 8 µg/mL (≈ 3.66 µM) | 8 µg/mL | 0.25 µg/mL (≈ 0.114 µM) | > 12 h | > 12 h | 0.25 µg/mL (≈ 0.114 µM) | 16 µg/mL (≈ 7.31 µM) | 0.5 µg/mL (≈ 0.228 µM) | 16 µg/mL (≈ 7.31 µM) | 16 µg/mL (≈ 7.31 µM) | 0% | 5477.8 ng/mL | 7.36 LOG10 CFU/mL | 2189.1 ng/mL | 4 µg/mL (≈ 1.83 µM) | > 24 h |  |
| CSCC[C@H](N)C(=O)N[C@@H](CCCNC(=N)N)C(=O)N[C@@H](Cc1ccccc1)C(=O)N[C@@H](C)C(=O)O [Positive Control, NH2-Met-Arg-Phe-Ala-OH, reference compound] (H-MRFA-OH) |  |  |  |  |  |  |  |  |  |  |  |  |  |  |  |  | > 24 h |
